SMILES strings stand for the structures. Where a SMILES comes first, the peptide text is derived from it. Bridges are numbered along the chain shown (N, C = ends). Roman numbers before positions name the chains, in order. [ ]: non-standard residue; d: D form. The star is where a group is joined. X1 = O=C(O)CCCCCCCCCCCCCCCCC(=O)N[C@@H](CCC(=O)NCCOCCOCCOCCOCC(=O)*)C(=O)O; Api = NC1(C(=O)O)CCNCC1

T1 sequence (P41145 whole entry): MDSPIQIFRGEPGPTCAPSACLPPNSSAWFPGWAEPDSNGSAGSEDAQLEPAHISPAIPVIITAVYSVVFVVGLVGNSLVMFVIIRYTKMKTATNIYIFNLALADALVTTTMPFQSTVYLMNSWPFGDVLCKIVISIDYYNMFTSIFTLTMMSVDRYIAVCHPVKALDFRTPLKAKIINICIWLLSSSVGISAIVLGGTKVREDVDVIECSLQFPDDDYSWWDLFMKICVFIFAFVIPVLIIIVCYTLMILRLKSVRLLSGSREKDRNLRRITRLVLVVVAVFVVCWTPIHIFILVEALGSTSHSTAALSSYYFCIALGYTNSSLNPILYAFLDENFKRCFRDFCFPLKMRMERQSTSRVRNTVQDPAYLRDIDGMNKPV

Tested on in the first series: not listed separately
Briefly: Preliminary pharmacokinetic properties after subcutaneous administration. It is filed as in vivo. The settings on record: cynomolgus monkey; male Macaca fascicularis, subcutaneous (SC), 0.1 mg/kg, plasma, LC-MS; read-out: t½ (converted). As to the method: The compound with the best activity was selected for determination of its preliminary pharmacokinetic properties. Two male Macaca fascicularis were used as experimental animals. A subcutaneous administration was performed at a dose of 0.1 mg/kg. Venous blood samples were collected before administration (0 h) and at 1 h, 2 h, 3 h, 4 h, 8 h, 12 h, 18 h, 24 h, 48 h, 96 h, 144 h, and 168 h post-administration. Plasma samples were separated by centrifugation. The plasma concentration of the compound in the plasma samples was determined using liquid chromatography-mass spectrometry.
Turning to `CCOc1ccc(C[C@@H](NC(=O)[C@H](N)Cc2ccccc2)C(=O)N[C@H](CC(C)C)C(=O)N[C@H](CCCCN)C(=O)N2CCC(N)(C(=O)NCCOCCOCC(=O)N[C@@H](CCCCNC(=O)COCCOCCOCCOCCNC(=O)CC[C@H](NC(=O)CCCCCCCCCCCCCCCCC(=O)O)C(=O)O)C(N)=O)CC2)cc1` [Compound 3, D-Phe-D-Tyr(Et)-D-Leu-D-Lys-4-aminopiperidine-4-carboxamide-AEEA-Lys(PEG4CH2CO-γGlu-octadecanedioic acid)-NH2], the half-life was 2.3 days.

A further series concerns the target T1, human κ opioid receptor (OPRK1) (Homo sapiens, UniProt P41145).
T1 construct: expressed in transfected cells; host or cells: CHO-K1
Briefly: Agonist activity: inhibition of forskolin-stimulated cAMP release (HTRF) in CHO-K1 cells stably expressing opioid receptors. It is filed as cell-based. The settings on record: CHO-K1 cell line stably expressing opioid receptors; forskolin-stimulated cAMP, HTRF. An excerpt: Gi-coupled human κ opioid receptor (OPRK1), upon stimulation with its specific opioid receptor agonists, can inhibit the intracellular adenylate cyclase pathway, and decrease cAMP levels. Forskolin can stimulate cAMP release in cell lines highly expressing opioid receptors. By stimulating cell lines stably transfected with opioid receptors, the inhibitory effect of a test compound on forskolin-stimulated cAMP release can be measured to determine the activity of the compound. The relative light units (RLU) from the cells after stimulation with different doses were measured via the homogeneous time-resolved fluorescence (HTRF) technique, and the EC50 of the agonist was subsequently calculated. This activity determination method is a currently commonly used method for determining the activities of opioid receptor agonists at home and abroad.
A CHO-K1 cell line stably expressing opioid receptors was used. Stably transfected cells were stimulated with various concentrations of agonists (under the stimulation of a certain concentration of forskolin). The relative light units from the cells after stimulation with different doses were measured, from which the EC50 value of the agonist was subsequently obtained by calculation.
In general terms: Time-resolved FRET reads energy transfer from a long-lived donor to a nearby acceptor.
Regarding `CC(C)C[C@@H](NC(=O)[C@@H](Cc1ccccc1)NC(=O)[C@H](N)Cc1ccccc1)C(=O)N[C@H](CCCCN)C(=O)N1CCC(N)(C(=O)O)CC1` [Difelikefalin, reference compound], a half-maximal response (EC50) required 0.653 nM.

Still in this series, the particulars now being: relative to Difelikefalin = 100%.
For the compound `CCOc1ccc(C[C@@H](NC(=O)[C@H](N)Cc2ccccc2)C(=O)N[C@H](CC(C)C)C(=O)N[C@H](CCCCN)C(=O)N2CCC(N)(C(=O)NCC(=O)N[C@@H](CCCCNC(=O)COCCOCCOCCOCCNC(=O)CC[C@H](NC(=O)CCCCCCCCCCCCCCCCC(=O)O)C(=O)O)C(N)=O)CC2)cc1` [Compound 10, D-Phe-D-Tyr(Et)-D-Leu-D-Lys-4-aminopiperidine-4-carboxamide-Gly-Lys(PEG4CH2CO-γGlu-octadecanedioic acid)-NH2], the “Relative Activity %” value is 15.1%.

On to `CC(C)C[C@@H](NC(=O)[C@@H](Cc1ccc(F)cc1)NC(=O)[C@H](N)Cc1ccccc1)C(=O)N[C@H](CCCCN)C(=O)N1CCC(N)(C(=O)NCCOCCOCC(=O)N[C@@H](CCCCNC(=O)COCCOCCOCCOCCNC(=O)CC[C@H](NC(=O)CCCCCCCCCCCCCCCCC(=O)O)C(=O)O)C(N)=O)CC1` [Compound 7, D-Phe-D-Phe(4-F)-D-Leu-D-Lys-4-aminopiperidine-4-carboxamide-AEEA-Lys(PEG4CH2CO-γGlu-octadecanedioic acid)-NH2], for which the “Relative Activity %” value was 10.5%.

In the case of `CCOc1ccc(C[C@@H](NC(=O)[C@H](N)Cc2ccccc2)C(=O)N[C@H](CC(C)C)C(=O)N[C@H](CCCCN)C(=O)N2CCC(N)(C(=O)NCCOCC(=O)N[C@@H](CCCCNC(=O)COCCOCCOCCOCCNC(=O)CC[C@H](NC(=O)CCCCCCCCCCCCCCCCC(=O)O)C(=O)O)C(N)=O)CC2)cc1` [Compound 2, D-Phe-D-Tyr(Et)-D-Leu-D-Lys-4-aminopiperidine-4-carboxamide-PEG1CH2CO-Lys(PEG4CH2CO-γGlu-octadecanedioic acid)-NH2], the “Relative Activity %” value is recorded as 20.7%.

In the case of `CCOc1ccc(C[C@@H](NC(=O)[C@H](N)Cc2ccccc2)C(=O)N[C@H](CC2CC2)C(=O)N[C@H](CCCCN)C(=O)N2CCC(N)(C(=O)NCCOCCOCC(=O)N[C@@H](CCCCNC(=O)COCCOCCOCCOCCNC(=O)CC[C@H](NC(=O)CCCCCCCCCCCCCCCCC(=O)O)C(=O)O)C(N)=O)CC2)cc1` [Compound 12, D-Phe-D-Tyr(Et)-D-Cyclopropylalanine-D-Lys-4-aminopiperidine-4-carboxamide-AEEA-Lys(PEG4CH2CO-γGlu-octadecanedioic acid)-NH2], the “Relative Activity %” value is reported as 15.2%.

In the case of `CCOc1ccc(C[C@@H](NC(=O)[C@H](N)Cc2ccccc2)C(=O)N[C@H](CC(C)C)C(=O)N[C@H](CCCCN)C(=O)N2CCC(N)(C(=O)NCCOCCOCCOCCOCC(=O)N[C@@H](CCCCNC(=O)COCCOCCOCCOCCNC(=O)CC[C@H](NC(=O)CCCCCCCCCCCCCCCCC(=O)O)C(=O)O)C(N)=O)CC2)cc1` [Compound 4, D-Phe-D-Tyr(Et)-D-Leu-D-Lys-4-aminopiperidine-4-carboxamide-PEG4CH2CO-Lys(PEG4CH2CO-γGlu-octadecanedioic acid)-NH2], the “Relative Activity %” value is given as 17.2%.

`CCOc1ccc(C[C@@H](NC(=O)[C@H](N)Cc2ccccc2)C(=O)N[C@H](CC(C)C)C(=O)N[C@H](CCCCN)C(=O)N2CCC(N)(C(=O)NCCOCCOCC(=O)N[C@@H](CCCCNC(=O)COCCOCCOCCOCCNC(=O)CC[C@H](NC(=O)CCCCCCCCCCCCCCCCC(=O)O)C(=O)O)C(N)=O)CC2)cc1` [Compound 3, D-Phe-D-Tyr(Et)-D-Leu-D-Lys-4-aminopiperidine-4-carboxamide-AEEA-Lys(PEG4CH2CO-γGlu-octadecanedioic acid)-NH2]: the “Relative Activity %” value came out at 23.8%.

In the case of `COc1ccc(C[C@@H](NC(=O)[C@H](N)Cc2ccccc2)C(=O)N[C@H](CC(C)C)C(=O)N[C@H](CCCCN)C(=O)N2CCC(N)(C(=O)NCCOCCOCC(=O)N[C@@H](CCCCNC(=O)COCCOCCOCCOCCNC(=O)CC[C@H](NC(=O)CCCCCCCCCCCCCCCCC(=O)O)C(=O)O)C(N)=O)CC2)cc1` [Compound 5, D-Phe-D-Tyr(Me)-D-Leu-D-Lys-4-aminopiperidine-4-carboxamide-AEEA-Lys(PEG4CH2CO-γGlu-octadecanedioic acid)-NH2], the “Relative Activity %” value is on record as 13.6%.

Consider `CCOc1ccc(C[C@@H](NC(=O)[C@H](N)Cc2ccccc2)C(=O)N[C@H](CC(C)C)C(=O)N[C@H](CCCCN)C(=O)N2CCC(N)(C(=O)NCC(=O)NCC(=O)N[C@@H](CCCCNC(=O)COCCOCCOCCOCCNC(=O)CC[C@H](NC(=O)CCCCCCCCCCCCCCCCC(=O)O)C(=O)O)C(N)=O)CC2)cc1` [Compound 11, D-Phe-D-Tyr(Et)-D-Leu-D-Lys-4-aminopiperidine-4-carboxamide-Gly-Gly-Lys(PEG4CH2CO-γGlu-octadecanedioic acid)-NH2] (I: H-[Api]GGK(X1)-NH2 / II: H-[dF][dY](Et)[dL][dK]; amide I:1-II:C; N-terminus assumed), for which the “Relative Activity %” value was 16.9%.

As for `CC(C)C[C@@H](NC(=O)[C@@H](Cc1ccc(Cl)cc1)NC(=O)[C@H](N)Cc1ccccc1)C(=O)N[C@H](CCCCN)C(=O)N1CCC(N)(C(=O)NCCOCCOCC(=O)N[C@@H](CCCCNC(=O)COCCOCCOCCOCCNC(=O)CC[C@H](NC(=O)CCCCCCCCCCCCCCCCC(=O)O)C(=O)O)C(N)=O)CC1` [Compound 6, D-Phe-D-Phe(4-Cl)-D-Leu-D-Lys-4-aminopiperidine-4-carboxamide-AEEA-Lys(PEG4CH2CO-γGlu-octadecanedioic acid)-NH2], the “Relative Activity %” value was found to be 12.2%.

In the case of `CCOc1ccc(C[C@@H](NC(=O)[C@H](N)Cc2ccccc2)C(=O)N[C@H](CC(C)C)C(=O)N[C@H](CCCCN)C(=O)N2CCC(N)(C(=O)NCCOCCOCC(=O)N[C@@H](CCCCNC(=O)COCCOCCOCCOCCOCCNC(=O)CC[C@H](NC(=O)CCCCCCCCCCCCCCCCC(=O)O)C(=O)O)C(N)=O)CC2)cc1` [Compound 9, D-Phe-D-Tyr(Et)-D-Leu-D-Lys-4-aminopiperidine-4-carboxamide-AEEA-Lys(PEG5CH2CO-γGlu-octadecanedioic acid)-NH2], the “Relative Activity %” value is 16.4%.

Regarding `CCOc1ccc(C[C@@H](NC(=O)[C@H](N)Cc2ccccc2)C(=O)N[C@H](CC(C)C)C(=O)N[C@H](CCCCN)C(=O)N2CCC(N)(C(=O)NCCOCCOCC(=O)N[C@@H](CCCCNC(=O)COCCOCCOCCNC(=O)CC[C@H](NC(=O)CCCCCCCCCCCCCCCCC(=O)O)C(=O)O)C(N)=O)CC2)cc1` [Compound 8, D-Phe-D-Tyr(Et)-D-Leu-D-Lys-4-aminopiperidine-4-carboxamide-AEEA-Lys(PEG3CH2CO-γGlu-octadecanedioic acid)-NH2], the “Relative Activity %” value is given as 17.7%.

On to `CCOc1ccc(C[C@@H](NC(=O)[C@H](N)Cc2ccccc2)C(=O)N[C@H](CC(C)C)C(=O)N[C@H](CCCCN)C(=O)N2CCC(N)(C(=O)N[C@@H](CCCCNC(=O)COCCOCCOCCOCCNC(=O)CC[C@H](NC(=O)CCCCCCCCCCCCCCCCC(=O)O)C(=O)O)C(N)=O)CC2)cc1` [Compound 1, D-Phe-D-Tyr(Et)-D-Leu-D-Lys-4-aminopiperidine-4-carboxamide-Lys(PEG4CH2CO-γGlu-octadecanedioic acid)-NH2], for which the “Relative Activity %” value stood at 15.6%.

For orientation: EC50 means the concentration giving half of the maximal effect.

The values are drawn from patent US20260265301A1, “LONG-ACTING K-OPIOID RECEPTOR AGONIST” (CHENGDU AODA BIOTECHNOLOGY CO., LTD, priority 2023, published 2026).
